# According to patent US20260308149A1, “NOVEL CARBOXAMIDE DERIVATIVES” (ANGELINI PHARMA S.P.A., priority 2023, published 2026):
# pEC50: −log10 of the molar value.
# Legend:
# pain models = details: Korsgaard et al., 2005; Xu et al., 2010; Wu et al., 2017; cited from earlier work
# patients = details: MDD patients; Tan et al., 2018; cited from earlier work
# [1] = tested on: Patient-derived motor neurons; details: ALS patient-derived motor neurons; Wainger et al., 2014; cited from earlier work
# peripheral neuropathy = details: preclinical; Nodera et al., 2011; cited from earlier work
# ALS patients = details: clinical trials in ALS; Wainger et al., 2021; cited from earlier work
# [2] = tested on: Dup15q patient-derived induced pluripotent cells; details: Fink et al., 2018; cited from earlier work
# [3] = tested on: preclinical models of tinnitus; details: Li, Choi and Tzounopoulos, 2013; cited from earlier work
# spreading depression = details: Aiba and Noebels, 2021; cited from earlier work
# human Kv7.2 = biological target: T1, human Kv7.2 (Homo sapiens, UniProt O43526); assay: activation (potentiation) of Kv7.2 current, SyncroPatch 384 electrophysiology in CHO cells stably expressing human Kv7.2; format: cell-based; details: human Kv7.2 in CHO cells; in presence of 5.6 μM zinc pyrithione; % activation relative to 30 μM ML-213
# T1 construct: expressed in transfected cells
# T1 sequence (O43526 whole entry): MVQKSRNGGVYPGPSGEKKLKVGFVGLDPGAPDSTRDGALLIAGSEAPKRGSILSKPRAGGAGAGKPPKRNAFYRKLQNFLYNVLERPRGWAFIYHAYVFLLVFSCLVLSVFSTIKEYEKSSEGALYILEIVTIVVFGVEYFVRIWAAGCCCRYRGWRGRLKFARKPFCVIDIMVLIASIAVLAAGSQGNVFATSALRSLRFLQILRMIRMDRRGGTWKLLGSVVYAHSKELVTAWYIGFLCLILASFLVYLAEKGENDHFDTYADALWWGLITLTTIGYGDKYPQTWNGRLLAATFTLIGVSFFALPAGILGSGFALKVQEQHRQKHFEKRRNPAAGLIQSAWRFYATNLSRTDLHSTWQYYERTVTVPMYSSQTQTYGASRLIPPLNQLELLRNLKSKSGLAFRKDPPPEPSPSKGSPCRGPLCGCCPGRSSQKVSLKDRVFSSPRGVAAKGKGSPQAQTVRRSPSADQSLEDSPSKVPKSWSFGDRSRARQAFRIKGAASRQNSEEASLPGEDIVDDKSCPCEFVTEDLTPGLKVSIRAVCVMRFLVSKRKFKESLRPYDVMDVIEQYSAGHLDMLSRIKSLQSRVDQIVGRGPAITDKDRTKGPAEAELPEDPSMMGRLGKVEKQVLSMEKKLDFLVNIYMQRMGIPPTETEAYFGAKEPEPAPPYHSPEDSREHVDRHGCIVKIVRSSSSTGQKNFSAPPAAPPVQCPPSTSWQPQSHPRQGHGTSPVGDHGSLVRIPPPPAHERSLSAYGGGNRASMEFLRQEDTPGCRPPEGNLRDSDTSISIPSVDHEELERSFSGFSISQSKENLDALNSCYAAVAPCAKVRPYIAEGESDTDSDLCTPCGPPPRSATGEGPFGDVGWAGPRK
# In short: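 CHO cells stably expressing human Kv7.2 were recorded by automated patch clamp, holding at −60 mV with steps to −30, 40 and −90 mV; current was read at the −90 mV step. Compounds were added after 5.6 μM zinc pyrithione pre-activation. % activation was normalised between 30 μM ML-213 (max) and TEA+XE-991 (leak), with EC50 from a logistic fit.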
SMILES,pEC50 (human Kv7.2),also measured
CCOC(=O)Nc1ccc(NCc2ccc(F)cc2)cc1N [Retigabine],–,efficacy in preclinical pain models (pain models): some efficacy in preclinical pain models; antidepressant efficacy (patients): showed antidepressant efficacy in patients; reduction in depressive symptoms (patients): significant reduction in depressive symptoms; rescue of membrane hyperexcitability phenotype [1]: rescues the phenotype; protection against peripheral neuropathy (peripheral neuropathy): protects against peripheral neuropathy; efficacy on functional biomarkers of ALS (ALS patients): showed efficacy on functional biomarkers of ALS; effect on phenotype [2]: partially corrects their phenotype; prevention of the development of tinnitus [3]: prevents the development of tinnitus in preclinical models; efficacy in controlling spreading depression (spreading depression): shows efficacy in controlling spreading depression
"N#Cc1cccc([C@]2(CNC(=O)C3CCC34CCC4)CCO2)c1 (stereo partly drawn) [Example 100, N-[[(2S)-2-(3-cyanophenyl)oxetan-2-yl]methyl]spiro[3.3]heptane-3-carboxamide]",5.01,–
"O=C(NC[C@]1(c2cccc(Cl)c2)CCO1)[C@H]1C[C@@H]1c1ccccc1 [Example 39, (1S,2S)-N-[[(2R)-2-(3-chlorophenyl)oxetan-2-yl]methyl]-2-phenyl-cyclopropanecarboxamide]",6.14,–
"COC(CNC(=O)Cc1cccc2ccccc12)c1ccccc1Cl (stereo not shown) [Example 36, N-[2-(2-chlorophenyl)-2-methoxy-ethyl]-2-(1-naphthyl)acetamide]",5.80,–
"O=C(NCC1CCCCO1)NCC1(c2cccc(Cl)c2)CC1 (stereo not shown) [Example 15, 1-[[1-(3-chlorophenyl)cyclopropyl]meth-yl]-3-(tetrahydropyran-2-ylmethyl)urea]",5.16,–
"N#Cc1cccc([C@]2(CNC(=O)C(F)CC3CCCC3)CCO2)c1 (stereo partly drawn) [Example 103, N-[[(2S)-2-(3-cyanophenyl)oxetan-2-yl]methyl]-3-cyclopentyl-2-fluoro-propanamide]",5.21,–
"O=C(NCC1CCCC1)NCC1(c2cccc(Cl)c2)CCC(=O)O1 (stereo not shown) [Example 75, 1-[[2-(3-chlorophenyl)-5-oxo-tetrahydrofuran-2-yl]methyl]-3-(cyclopentylmethyl)urea]",6.54,–
"Cc1ccc(C2CC2C(=O)NC[C@@]2(c3cccc(C#N)c3)CCO2)o1 (stereo partly drawn) [Example 133, N-[[(2S)-2-(3-cyanophenyl)oxetan-2-yl]methyl]-2-(5-methyl-2-furyl)cyclopropanecarboxamide]",6.30,–
"O=C(CC1CCCCC1)NCC1(c2cccc(OC(F)F)n2)CCO1 (stereo not shown) [Example 119, 2-cyclohexyl-N-[[2-[6-(difluoromethoxy)-2-pyridyl]oxetan-2-yl]methyl]acetamide]",6.18,–
"O=C(NCC1(c2cccc(OC(F)F)n2)CCO1)C1CC12CCC(F)(F)CC2 (stereo not shown) [Example 120, N-[[2-[6-(difluoromethoxy)-2-pyridyl]oxetan-2-yl]methyl]-6,6-difluoro-spiro[2.5]octane-2-carboxamide]",6.59,–
"O=C1CCC(CNC(=O)[C@H]2C[C@@H]2c2ccccc2)(c2cccc(Cl)c2)O1 (stereo partly drawn) [Example 66, (1S,2S)-N-[[2-(3-chlorophenyl)-5-oxo-tetrahydrofuran-2-yl]methyl]-2-phenyl-cyclopropanecarboxamide]",7.10,–
"CO[C@@](C)(CNC(=O)NC1CCCC1)c1cccc(Cl)c1 [Example 16, 1-[(2R)-2-(3-chlorophenyl)-2-methoxy-propyl]-3-cyclopentyl-urea]",5.54,–
"COC(C)(CNC(=O)NCc1ccco1)c1cccc(Cl)c1 (stereo not shown) [Example 9, 1-[2-(3-chlorophenyl)-2-methoxy-propyl]-3-(2-furylmethyl)urea]",5.61,–
"O=C(NCC1(c2ccnc(OC(F)F)c2)CCO1)[C@H]1CC12CCCCC2 (stereo in doubt) [Example 122, N-[[2-[2-(difluoromethoxy)-4-pyridyl]oxetan-2-yl]methyl]spiro[2.5]octane-2-carboxamide]",6.41,–
"N#Cc1cccc([C@]2(CNC(=O)C(F)C3CC4CCC3C4)CCO2)c1 (stereo partly drawn) [Example 131, N-[[(2S)-2-(3-cyanophenyl)oxetan-2-yl]methyl]-2-fluoro-2-norbornan-2-yl-acetamide]",5.23,–
"N#Cc1cccc(C2(CNC(=O)[C@H]3C[C@@H]3c3ccccc3)CCC(=O)O2)c1 (stereo partly drawn) [Example 88, (1S,2S)—N-[[2-(3-cyanophenyl)-5-oxo-tetrahydrofuran-2-yl]methyl]-2-phenyl-cyclopropanecarboxamide]",6.70,–
"N#Cc1cccc([C@]2(CNC(=O)CC3CC4(CCC4)C3)CCO2)c1 [Example 116, N-[[(2S)-2-(3-cyanophenyl)oxetan-2-yl]methyl]-2-spiro[3.3]heptan-2-yl-acetamide]",6.21,–
